ChEMBL document CHEMBL1145438, “Synthesis and matrix metalloproteinase (MMP)-12 inhibitory activity of ageladine A and its analogs” (Bioorg Med Chem Lett, 2007)

Target: Macrophage metalloelastase (Homo sapiens, UniProt P39900)
Assay: Inhibition of MMP12

Sequence of Macrophage metalloelastase (P39900 whole entry): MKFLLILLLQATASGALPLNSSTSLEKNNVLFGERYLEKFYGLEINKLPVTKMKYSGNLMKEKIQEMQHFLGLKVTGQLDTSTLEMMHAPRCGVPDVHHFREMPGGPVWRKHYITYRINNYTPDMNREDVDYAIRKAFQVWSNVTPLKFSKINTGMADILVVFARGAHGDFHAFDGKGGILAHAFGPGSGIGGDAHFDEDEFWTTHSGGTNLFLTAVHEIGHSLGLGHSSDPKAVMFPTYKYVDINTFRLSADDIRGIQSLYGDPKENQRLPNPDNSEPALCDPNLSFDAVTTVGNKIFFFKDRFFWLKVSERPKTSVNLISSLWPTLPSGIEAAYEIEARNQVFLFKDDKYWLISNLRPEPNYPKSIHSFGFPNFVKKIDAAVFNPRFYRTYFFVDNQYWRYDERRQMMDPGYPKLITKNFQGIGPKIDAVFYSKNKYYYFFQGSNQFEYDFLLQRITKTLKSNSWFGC

Cn1c(-c2nccc3[nH]c(N)nc23)cc(Br)c1Br
IC50: > 100 µM

Nc1nc2c(-c3cc(Br)c(Br)[nH]3)nccc2[nH]1 [AGELADINE A]
IC50: 3.66 µM

CNc1nc2c(-c3cc(Br)c(Br)[nH]3)nccc2n1C
IC50: > 100 µM

CN(C)c1nc2c(-c3cc(Br)c(Br)[nH]3)nccc2[nH]1
IC50: > 100 µM

Nc1nc2c(-c3cc(Br)c[nH]3)nccc2[nH]1
IC50: > 100 µM

CNc1nc2c(-c3cc(Br)c(Br)[nH]3)nccc2[nH]1
IC50: 10.4 µM

Cn1c(N)nc2c(-c3cc(Br)c(Br)[nH]3)nccc21
IC50: 56.9 µM

Nc1nc2c(-c3ccc[nH]3)nccc2[nH]1
IC50: > 100 µM

Nc1nc2c(-c3ccc(Br)[nH]3)nccc2[nH]1
IC50: > 100 µM

Brc1cc(-c2nccc3[nH]cnc23)[nH]c1Br
IC50: 43.6 µM
